In US7763657B2, “Compounds, isomer thereof, or pharmaceutically acceptable salts thereof as vanilloid receptor antagonist; and pharmaceutical compositions containing the same” (Amorepacific Corporation, priority 2005, dated 2010):

Key:
[1] = target: T1, vanilloid receptor (Rattus norvegicus, UniProt O35433); assay: 45Ca influx test (calcium uptake) in primary cultured DRG neurons, antagonism of capsaicin; type: cell-based; conditions: neonatal SD rat DRG nerve cells; capsaicin 0.5 μM; 45Ca 10 μCi/ml; 10 mins room temperature; read-out: Antagonist Calcium Uptake Test (IC50)
T1 construct: DRG nerve cells from the primary culture of 2 days were equilibrated; endogenous in cells; host or cells: primary cultured dorsal root ganglion neurons of neonatal SD rats
Experimental: 1) Separation of Spinal Dorsal Root Ganglia (DRG) in Newborn Rats and Primary Culture Thereof
Neonatal (2-3 day old or younger than 2-3 day old) SD rats were put in ice for 5 minutes to anesthetize and disinfected with 70% ethanol. […] The DRG were incubated sequentially at 37° C. for 30 min in 200 U/ml collagenase and 2.5 mg/ml trypsin, separately. The ganglia were washed twice with DME/F12 medium supplemented with 10% horse serum, triturated through a fire-polished Pasteur pipette, filtered through Nitex 80 membrane to obtain single cell suspension and the suspension was washed once more. This was subjected to centrifugation, then resuspended in cell culture medium at certain level of cell density. As the cell culture medium, DME/F12 medium supplemented with 10% horse serum was diluted with identical medium conditioned by C6 glioma cells 2 days on a confluent monolayer (1:1), and NGF (Nerve Growth Factor) was added to adjust 200 ng/ml as final concentration. After the cells were grown 2 days in medium where cytosine arabinoside (Ara-C, 100 μM) was added to kill dividing nonneuronal cells, medium was changed to one without Ara-C. The resuspended cells were plated at a density of 1500-2000 neurons/well onto Terasaki plates previously coated with 10 μg/ml poly-D-ornithine.
2) ^45Ca Influx Experiments
DRG nerve cells from the primary culture of 2 days were equilibrated by washing 4 times with HEPES (10 mM, pH 7.4)-buffered Ca^2+, Mg^2+-free HBSS (H—HBSS). The solution in each well was removed from the individual well. Medium containing the test compound plus capsaicin (final concentration 0.5 μM) and ^45Ca (final concentration 10 μCi/ml) in H—HBSS was added to each well and incubated at room temperature for 10 mins. Terasaki plates were washed five times with H—HBSS and dried at room temperature. To each well, 0.3% SDS (10 μl) was added to elute ^45Ca. After the addition of scintillation cocktail of into each well, the amount of ^45Ca influx into neuron was measured by counting radioactivity.

[2] = tested on: Male ICR mice; assay: Analgesic activity test: mouse writhing test by inducing with phenyl-p-quinone; type: in vivo; conditions: ip, 0.5 h, number of writhes vs control, read-out: Analgesic effect (% Inhibition); for inhibition in vivo at 1 mg/kg: Dose 1 mg/kg intraperitoneally 30 min before phenyl-p-quinone
Experimental: 3. Analgesic Activity Test: Mouse Writhing Test by Inducing with phenyl-p-quinone
Male ICR mice (mean body weight 25 g) were maintained in a controlled lighting environment (12 h on/12 h off) for experiment. Animals received an intraperitoneal injection of 0.3 ml of the chemical irritant phenyl-p-quinone (dissolved in saline containing 5% ethanol to be a dose of 4.5 mg/kg) and 6 mins later, the number of abdominal constrictions was counted in the subsequent 6 mins period. Animals (10 animals/group) received 0.2 ml of test compounds solution in vehicle of ethanol/Tween 80/saline (10/10/80) intraperitoneally 30 min before the injection of phenyl-p-quinone. A reduction in the number of writhes responding to the test drug compound relative to the number responding in saline control group was considered to be indicative of an analgesic effect. Analgesic effect was calculated by % inhibition equation (% inhibition=(C−T)/C×100), wherein C and T represent the number of writhes in control and compound-treated group, respectively (Table 3).

T1 sequence (O35433 whole entry): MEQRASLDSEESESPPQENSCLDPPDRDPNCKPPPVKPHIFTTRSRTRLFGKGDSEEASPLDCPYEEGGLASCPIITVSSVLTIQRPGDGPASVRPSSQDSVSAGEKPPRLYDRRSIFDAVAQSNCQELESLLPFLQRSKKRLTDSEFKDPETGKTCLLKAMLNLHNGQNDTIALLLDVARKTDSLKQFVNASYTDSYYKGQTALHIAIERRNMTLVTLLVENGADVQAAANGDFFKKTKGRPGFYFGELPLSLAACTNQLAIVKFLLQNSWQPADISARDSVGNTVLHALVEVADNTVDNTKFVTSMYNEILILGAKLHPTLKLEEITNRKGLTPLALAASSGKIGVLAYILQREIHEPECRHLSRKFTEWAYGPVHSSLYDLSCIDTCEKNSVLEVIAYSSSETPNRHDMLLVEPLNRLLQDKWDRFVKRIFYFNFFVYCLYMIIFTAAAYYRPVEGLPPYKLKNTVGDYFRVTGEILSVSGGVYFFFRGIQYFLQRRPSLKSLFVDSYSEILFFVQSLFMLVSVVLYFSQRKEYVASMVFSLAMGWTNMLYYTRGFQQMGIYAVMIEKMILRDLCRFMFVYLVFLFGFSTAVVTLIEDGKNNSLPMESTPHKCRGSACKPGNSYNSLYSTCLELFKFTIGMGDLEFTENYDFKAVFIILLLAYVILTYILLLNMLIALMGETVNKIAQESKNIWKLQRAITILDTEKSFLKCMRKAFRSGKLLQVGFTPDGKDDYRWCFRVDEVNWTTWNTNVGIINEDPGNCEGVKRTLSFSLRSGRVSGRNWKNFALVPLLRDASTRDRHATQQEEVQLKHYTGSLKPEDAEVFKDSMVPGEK

SMILES | IC50 [1] [nM] | inhibition in vivo at 0.3 mg/kg ([2]; Dose 0.3 mg/kg intraperitoneally 30 min before phenyl-p-quinone) [%] | inhibition in vivo at 1 mg/kg [2] [%]
C=Cc1cc(CNC(=O)/C=C/c2ccc(C(C)(C)C)cc2)cc(F)c1NS(C)(=O)=O [Example 15, 3-(4-t-butylphenyl)-N-(3-fluoro-4-methanesulfonylamino-5-vinylbenzyl)acrylamide] | 34 |  | 60
C#Cc1cc(CNC(=O)/C=C/c2ccc(C(C)(C)C)cc2)cc(F)c1NS(C)(=O)=O [Example 16, 3-(4-t-butylphenyl)-N-(3-fluoro-5-ethynyl-4-methanesulfonylamino-benzyl)acrylamide] | 47 |  | 68
C=Cc1cc(CNC(=O)/C=C/c2ccc(C(C)(C)C)cc2N2CCN(C)CC2)cc(F)c1NS(C)(=O)=O [Example 25, 3-[4-tert-Butyl-2-(4-methylpiperazin-1-yl)phenyl]-N-(3-fluoro-4-methanesulfonylamino-5-vinylbenzyl)acrylamide] |  |  | 64
C=Cc1cc(CNC(=O)CCc2ccc(C(C)(C)C)cc2OC2CCOCC2)cc(F)c1NS(C)(=O)=O [Example 41, 3-[4-tert-Butyl-2-(tetrahydropyran-4-yloxy)phenyl]-N-(3-fluoro-4-methanesulfonylamino-5-vinylbenzyl)propionamide] | 43 |  | 44

Further lines, with some results ahead:

IC50 [1] [nM] | SMILES | inhibition in vivo at 0.3 mg/kg ([2]; Dose 0.3 mg/kg intraperitoneally 30 min before phenyl-p-quinone) [%] | inhibition in vivo at 1 mg/kg [2] [%]
98 | C=Cc1cc(CNC(=O)NCc2ccc(C(C)(C)C)cc2)cc(F)c1NS(C)(=O)=O [Example 2, N-{4-[3-(4-t-butylbenzyl)ureidomethyl]-2-fluoro-6-vinylphenyl}methanesulfonamide] | 57 | 
82 | C=Cc1cc([C@@H](C)NC(=O)NCc2ccc(C(C)(C)C)cc2)ccc1NS(C)(=O)=O [Example 6, N-(4-{1-(R)-[3-(4-t-butylbenzyl)ureido]ethyl}-2-vinylphenyl)methanesulfonamide] |  | 56
50 | C=Cc1cc([C@@H](C)NC(=O)/C=C/c2ccc(C(C)(C)C)cc2)ccc1NS(C)(=O)=O [Example 14, 3-(4-t-butylphenyl)-N-[1-(R)-(4-methanesulfonylamino-3-vinylphenyl)ethyl]acrylamide] |  | 58
58 | C=Cc1cc(CNC(=O)/C=C/c2ccc(C(C)(C)C)cc2)ccc1NS(C)(=O)=O [Example 17, 3-(4-t-butylphenyl)-N-(4-methanesulfonylamino-3-vinylbenzyl)acryl amide] |  | 63
63 | C=Cc1cc(CNC(=O)CCc2ccc(C(C)(C)C)cc2)ccc1NS(C)(=O)=O [Example 45, 3-[4-(tert-butyl)phenyl]-N-[4-(methanesulfonylamino)-3-vinylbenzyl]propionamide] |  | 82
25 | C=Cc1cc(CNC(=O)CCc2ccc(C(C)(C)C)cc2)cc(F)c1NS(C)(=O)=O [Example 46, 3-[4-(tert-butyl)phenyl]-N-[3-fluoro-4-(methanesulfonylamino)-5-vinylbenzyl]propionamide] |  | 43
